pIC50, pKd: −log10 of the molar value. Each block holds one compound with its values, some of them ahead of it. Activity calls are given as the source filed them. No cut-off for these calls is given here.
Experiments:
HeLa [1] = assay: Antiproliferative activity against human HeLa cells assessed as inhibition of cell growth at 25 nM measured after 24 hrs by SRB assay relative to control; type: functional
Tubulin (Homo sapiens) [2] = biological target: T1, Tubulin (Homo sapiens) (UniProt P68371+Q9H4B7+P0DPH7+P68366+Q13509+Q71U36+P04350+Q3ZCM7+P07437+P68363+Q9BQE3+Q6PEY2+Q13885+Q9BVA1+Q9BUF5); assay: Inhibition of tubulin polymerization in human A549 cells assessed as induction of interphase microtubule disorganization at 10 nM measured after 24 hrs by Hoechst-33258 staining based immunofluorescence analysis; type: cell-based
HeLa [3] = assay: Antiproliferative activity against human HeLa cells assessed as reduction in cell growth by SRB assay; type: functional, cell-based
A549 [4] = assay: Antiproliferative activity against human A549 cells assessed as reduction in cell growth by SRB assay; type: functional, cell-based
T47D = assay: Antiproliferative activity against human T47D cells assessed as reduction in cell growth by SRB assay; type: functional, cell-based
MDA-MB-231 = assay: Antiproliferative activity against human MDA-MB-231 cells assessed as reduction in cell growth by SRB assay; type: functional, cell-based
MCF7 = assay: Antiproliferative activity against human MCF7 cells assessed as reduction in cell growth by SRB assay; type: functional, cell-based
[5] = Antiproliferative activity against human H357 cells assessed as reduction in cell growth by SRB assay; type: functional, cell-based
[6] = Cytotoxicity against mouse L929 cells assessed as reduction in cell growth by SRB assay; type: toxicity, cell-based
B16-F10 = assay: Antiproliferative activity against mouse B16-F10 cells assessed as reduction in cell growth by SRB assay; type: functional, cell-based
A549 [7] = assay: Induction of cell cycle arrest in human A549 cells assessed as accumulation of cells at G1 phase at 10 nM incubated for 12 hrs by propidium iodide/RNase-staining based flow cytometry analysis (reference value: 67 +/- 11%); type: functional
A549 [8] = assay: Induction of cell cycle arrest in human A549 cells assessed as accumulation of cells at S phase at 10 nM incubated for 12 hrs by propidium iodide/RNase-staining based flow cytometry analysis (reference value: 22 +/- 6%); type: functional
A549 [9] = assay: Induction of cell cycle arrest in human A549 cells assessed as accumulation of cells at G1 phase at 20 nM incubated for 12 hrs by propidium iodide/RNase-staining based flow cytometry analysis (reference value: 67 +/- 11%); type: functional
A549 [10] = assay: Induction of cell cycle arrest in human A549 cells assessed as accumulation of cells at G2/M phase at 10 nM incubated for 12 hrs by propidium iodide/RNase-staining based flow cytometry analysis (reference value: 11 +/- 4%); type: functional
A549 [11] = assay: Induction of cell cycle arrest in human A549 cells assessed as accumulation of cells at S phase at 20 nM incubated for 12 hrs by propidium iodide/RNase-staining based flow cytometry analysis (reference value: 22 +/- 6%); type: functional
A549 [12] = assay: Induction of cell cycle arrest in human A549 cells assessed as accumulation of cells at G2/M phase at 20 nM incubated for 12 hrs by propidium iodide/RNase-staining based flow cytometry analysis (reference value: 11 +/- 4%); type: functional
A549 [13] = assay: Cytotoxicity against human A549 cells assessed as proportion of live cells at 10 nM incubated for 24 hrs by PI-staining based flow cytometry analysis (reference value: 90.1 to 90.2%); type: functional
A549 [14] = assay: Cytotoxicity against human A549 cells assessed as proportion of dead cells at 20 nM incubated for 24 hrs by PI-staining based flow cytometry analysis (reference value: 9.8 to 9.9%); type: functional
A549 [15] = assay: Cytotoxicity against human A549 cells assessed as proportion of dead cells at 10 nM incubated for 24 hrs by PI-staining based flow cytometry analysis (reference value: 9.8 to 9.9%); type: functional
A549 [16] = assay: Cytotoxicity against human A549 cells assessed as proportion of live cells at 20 nM incubated for 24 hrs by PI-staining based flow cytometry analysis (reference value: 90.1 to 90.2%); type: functional
[17] = Selectivity index, ratio of IC50 for cytotoxicity against mouse L929 cells to IC50 for antiproliferative activity against mouse B16-F10 cells; type: toxicity, cell-based; details: L929 cells versus B16-F10 cells, read-out: Ratio IC50
[18] = Aqueous stability of the compound in PBS assessed as absorbance at 40 uM measured at pH 7.2 after 20 days by spectrophotometer analysis; type: physicochemical; details: time 20 day, read-out: Stability
Tubulin (Homo sapiens) [19] = biological target: T1, Tubulin (Homo sapiens); assay: Inhibition of tubulin polymerization in human A549 cells assessed as induction of interphase microtubule disorganization at 20 nM measured after 24 hrs by Hoechst-33258 staining based immunofluorescence analysis; type: cell-based
Tubulin (Homo sapiens) [20] = biological target: T1, Tubulin (Homo sapiens); assay: Inhibition of tubulin polymerization in human A549 cells assessed as reduction in fluorescence intensity of microtubules at 10 nM measured after 24 hrs by Hoechst-33258 staining based immunofluorescence analysis relative to control; type: cell-based
Tubulin (Homo sapiens) [21] = biological target: T1, Tubulin (Homo sapiens); assay: Inhibition of tubulin polymerization in human A549 cells assessed as reduction in fluorescence intensity of microtubules at 20 nM measured after 24 hrs by Hoechst-33258 staining based immunofluorescence analysis relative to control; type: cell-based
Tubulin (Homo sapiens) [22] = biological target: T1, Tubulin (Homo sapiens); assay: Inhibition of tubulin polymerization in human A549 cells assessed as induction of mitotic spindle microtubules depolymerization at 20 nM measured after 24 hrs by Hoechst-33258 staining based immunofluorescence analysis; type: cell-based
Tubulin (Homo sapiens) [23] = biological target: T1, Tubulin (Homo sapiens); assay: Inhibition of tubulin polymerization in human HeLa cells assessed as induction of interphase microtubule depolymerization at 10 to 20 nM measured after 24 hrs by Hoechst-33258 staining based immunofluorescence analysis; type: cell-based; details: dose 10-20 nM
Tubulin (Homo sapiens) [24] = biological target: T1, Tubulin (Homo sapiens); assay: Inhibition of tubulin polymerization in human HeLa cells assessed as induction of mitotic microtubule depolymerization at 10 to 20 nM measured after 24 hrs by Hoechst-33258 staining based immunofluorescence analysis; type: cell-based; details: dose 10-20 nM
Capra hircus [25] = species: Capra hircus; assay: Inhibition of goat brain tubulin polymerization at 0.5 uM incubated for 10 mins followed by GTP addition and measured for 35 mins by spectrophotometric analysis relative to control; details: time 45.0 min
Capra hircus [26] = species: Capra hircus; assay: Inhibition of goat brain tubulin polymerization at 1 uM incubated for 10 mins followed by GTP addition and measured for 35 mins by spectrophotometric analysis relative to control; type: tissue-based; details: time 45.0 min
Capra hircus [27] = species: Capra hircus; assay: Inhibition of goat brain tubulin polymerization at 2 uM incubated for 10 mins followed by GTP addition and measured for 35 mins by spectrophotometric analysis relative to control; details: time 45.0 min
Capra hircus [28] = species: Capra hircus; assay: Inhibition of goat brain tubulin polymerization at 3 uM incubated for 10 mins followed by GTP addition and measured for 35 mins by spectrophotometric analysis relative to control; type: tissue-based; details: time 45.0 min
Capra hircus [29] = species: Capra hircus; assay: Inhibition of goat brain tubulin polymerization at 5 uM incubated for 10 mins followed by GTP addition and measured for 35 mins by spectrophotometric analysis relative to control; details: time 45.0 min
[30] = Inhibition of goat brain tubulin polymerization incubated for 10 mins followed by GTP addition and measured for 35 mins by spectrophotometric analysis; type: tissue-based, Capra hircus
Capra hircus [31] = species: Capra hircus; assay: Inhibition of goat brain tubulin polymerization assessed as reduction in initial rate of tubulin polymerization incubated for 10 mins followed by GTP addition and measured for 35 mins by spectrophotometric analysis; type: tissue-based; details: dose 2-6 µM, time 45.0 min
[32] = Binding affinity to goat brain tubulin assessed as increase in fluorescence intensity incubated for 30 mins by spectrofluorometric analysis; type: tissue-based, Capra hircus
Capra hircus [33] = species: Capra hircus; assay: Binding affinity to colchicine binding site of goat brain tubulin assessed as tubulin-compound complex fluorescence intensity at 10 uM preincubated with CA-4 for 30 mins followed by compound addition and measured after 30 mins by fluorescence based analysis
Capra hircus [34] = species: Capra hircus; assay: Binding affinity to colchicine binding site of goat brain tubulin assessed as tubulin-compound complex fluorescence intensity at 10 uM preincubated with podophyllotoxin for 30 mins followed by compound addition and measured after 30 mins by fluorescence based analysis
[35] = Aqueous stability of the compound in PBS assessed as absorbance at 40 uM measured at pH 7.2 after 24 hrs by spectrophotometer analysis; type: physicochemical; details: read-out: Stability

Structure (SMILES): COc1cc(-c2nc(N)[nH]c2-c2cccc3ncccc23)cc(OC)c1OC
inhibition at 0.025 µM (HeLa [1]): 27%

Structure (SMILES): COc1cc(-c2nc(N)[nH]c2-c2ccc3ccccc3n2)cc(OC)c1OC
inhibition (Tubulin (Homo sapiens) [2]): Active
inhibition at 0.025 µM (HeLa [1]): 74%
pIC50 (HeLa [3]): 8.00
pIC50 (A549 [4]): 7.92
pIC50 (T47D): 7.33
pIC50 (MDA-MB-231): 7.89
pIC50 (MCF7): 7.70
pIC50 [5]: 7.82
pIC50 [6]: 7.16
pIC50 (B16-F10): 7.60
Activity (A549 [7]): 51%
Activity (A549 [8]): 20%
Activity (A549 [9]): 37%
Activity (A549 [10]): 29%
Activity (A549 [11]): 19%
Activity (A549 [12]): 44%
Activity (A549 [13]): 76.7%
Activity (A549 [14]): 35.9%
Activity (A549 [15]): 22%
Activity (A549 [16]): 62.7%
selectivity ratio [17]: 2.76
remaining at 480 h, 40 µM [18]: 47%
inhibition (Tubulin (Homo sapiens) [19]): Active
inhibition (Tubulin (Homo sapiens) [20]): 23.6%
inhibition (Tubulin (Homo sapiens) [21]): 53.2%
inhibition (Tubulin (Homo sapiens) [22]): Active
inhibition (Tubulin (Homo sapiens) [23]): Active
inhibition (Tubulin (Homo sapiens) [24]): Active
inhibition (Capra hircus [25]): 8%
inhibition (Capra hircus [26]): 11%
inhibition (Capra hircus [27]): 28%
inhibition (Capra hircus [28]): 45%
inhibition (Capra hircus [29]): 75%
pIC50 [30]: 5.47
inhibition (Capra hircus [31]): Dose-Dependent Effect
pKd [32]: 5.30
Activity (Capra hircus [33]): inactive
Activity (Capra hircus [34]): inactive

Structure (SMILES): COc1cc(-c2nc(N)[nH]c2-c2ccc3ncccc3c2)cc(OC)c1OC
inhibition at 0.025 µM (HeLa [1]): 9%

Structure (SMILES): COc1ccc(/C=C\c2cc(OC)c(OC)c(OC)c2)cc1O [COMBRETASTATIN A4]
inhibition at 0.025 µM (HeLa [1]): 57%
pIC50 (HeLa [3]): 7.62
pIC50 (A549 [4]): 7.37
pIC50 (T47D): 6.39
pIC50 (MDA-MB-231): 7.00
pIC50 (MCF7): 7.62
pIC50 [5]: 8.46
pIC50 [6]: 6.93
pIC50 (B16-F10): 7.09
Activity (A549 [9]): 65%
Activity (A549 [11]): 18%
Activity (A549 [12]): 17%
Activity (A549 [14]): 7.37%
Activity (A549 [16]): 90.4%
remaining at 24 h, 40 µM [35]: 47%

Structure (SMILES): COc1cc(-c2nc(N)[nH]c2-c2ccc3nc(C)ccc3c2)cc(OC)c1OC
inhibition at 0.025 µM (HeLa [1]): 5%

pIC50 (HeLa [3]): 7.39
Structure (SMILES): COc1cc(-c2nc(N)[nH]c2-c2cncc3ccccc23)cc(OC)c1OC
inhibition at 0.025 µM (HeLa [1]): 47%

Structure (SMILES): COc1cc(-c2nc(N)[nH]c2-c2ccnc3cc(Cl)ccc23)cc(OC)c1OC
inhibition at 0.025 µM (HeLa [1]): 11%

pIC50 (HeLa [3]): 7.34
Structure (SMILES): COc1cc(-c2nc(N)[nH]c2-c2ccc3cnccc3c2)cc(OC)c1OC
inhibition at 0.025 µM (HeLa [1]): 46%

Structure (SMILES): COc1cc(-c2nc(N)[nH]c2-c2cnc3ccc(Cl)cc3c2)cc(OC)c1OC
inhibition at 0.025 µM (HeLa [1]): 11%

Structure (SMILES): COc1cc(-c2nc(N)[nH]c2-c2ccnc3ccccc23)cc(OC)c1OC
inhibition at 0.025 µM (HeLa [1]): 7%

Structure (SMILES): COc1ccc2ncc(-c3[nH]c(N)nc3-c3cc(OC)c(OC)c(OC)c3)cc2c1
inhibition at 0.025 µM (HeLa [1]): 30%

Structure (SMILES): COc1cc(-c2nc(N)[nH]c2-c2ccc3ccccc3c2)cc(OC)c1OC
inhibition at 0.025 µM (HeLa [1]): 34%

Structure (SMILES): COc1cc(-c2nc(N)[nH]c2-c2cnc3ccc(C)cc3c2)cc(OC)c1OC
inhibition at 0.025 µM (HeLa [1]): 8%

Structure (SMILES): COc1cc(-c2nc(N)[nH]c2-c2cccc3cccnc23)cc(OC)c1OC
inhibition at 0.025 µM (HeLa [1]): 32%

Structure (SMILES): COc1cc(-c2nc(N)[nH]c2-c2cccc3cnccc23)cc(OC)c1OC
inhibition at 0.025 µM (HeLa [1]): 43%

From ChEMBL document CHEMBL5390227, “Development of QTMP: A promising anticancer agent through NP-Privileged Motif-Driven structural modulation” (Bioorg Med Chem, 2023)
